Assay results as given in ChEMBL document CHEMBL1149550, “5(Z)-benzylidene-1,2-dihydro-9-hydroxy-10-methoxy-2,2,4-trimethyl-5H-1-aza-6-oxa-chrysenes as non-steroidal glucocorticoid receptor modulators” (Bioorg Med Chem Lett, 2007).
Activity calls are given as the source filed them. The calls are words filed in the database; no cut-off is given here.

What was measured:
[1] = test system: Rattus norvegicus; test: Antiinflammatory activity against carrageenan-induced paw edema in rat assessed as paw volume at 30 mg/kg after 3 hrs; type: functional, organism-based; design: dose 30 mg/kg
[2] = target: T1, Glucocorticoid receptor (Homo sapiens, UniProt P04150); type: functional
T1 sequence (P04150 whole entry): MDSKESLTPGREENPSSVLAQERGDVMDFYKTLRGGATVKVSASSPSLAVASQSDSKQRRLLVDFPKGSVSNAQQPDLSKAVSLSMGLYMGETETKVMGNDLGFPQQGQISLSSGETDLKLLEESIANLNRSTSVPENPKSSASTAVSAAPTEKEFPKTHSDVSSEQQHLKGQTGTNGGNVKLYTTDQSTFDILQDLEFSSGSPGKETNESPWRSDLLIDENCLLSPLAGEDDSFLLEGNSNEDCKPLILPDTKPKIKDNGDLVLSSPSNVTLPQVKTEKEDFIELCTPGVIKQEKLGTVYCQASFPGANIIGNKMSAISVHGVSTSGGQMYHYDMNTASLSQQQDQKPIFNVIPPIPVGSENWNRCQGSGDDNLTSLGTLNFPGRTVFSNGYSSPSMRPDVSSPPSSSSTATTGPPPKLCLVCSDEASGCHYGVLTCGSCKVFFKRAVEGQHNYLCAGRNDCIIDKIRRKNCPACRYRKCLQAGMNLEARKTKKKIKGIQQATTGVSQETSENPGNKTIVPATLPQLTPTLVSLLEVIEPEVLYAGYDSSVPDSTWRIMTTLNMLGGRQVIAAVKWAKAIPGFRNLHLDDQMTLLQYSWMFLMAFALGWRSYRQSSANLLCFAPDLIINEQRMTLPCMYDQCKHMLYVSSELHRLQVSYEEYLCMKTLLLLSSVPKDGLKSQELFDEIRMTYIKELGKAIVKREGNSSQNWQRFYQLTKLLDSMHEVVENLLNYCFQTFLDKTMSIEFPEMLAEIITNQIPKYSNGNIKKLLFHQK
Description: Agonist activity at GR by GRE activation assay

[3] = target: T1, Glucocorticoid receptor; type: functional; remark: listed apart in the source
Description: Antagonist activity at GR assessed as inhibition of dexamethasone-induced GRE activation

[4] = target: T1, Glucocorticoid receptor; type: functional; remark: listed apart in the source
Description: Activity at GR assessed as repression of TNFalpha and IL 1-beta induced E-selectin response

[5] = target: T1, Glucocorticoid receptor
Description: Displacement of radiolabeled Dexamethasone from glucocorticoid receptor

[6] = target: T2, Progesterone receptor (Homo sapiens, UniProt P06401); test: Binding affinity at PR
T2 sequence (P06401 whole entry): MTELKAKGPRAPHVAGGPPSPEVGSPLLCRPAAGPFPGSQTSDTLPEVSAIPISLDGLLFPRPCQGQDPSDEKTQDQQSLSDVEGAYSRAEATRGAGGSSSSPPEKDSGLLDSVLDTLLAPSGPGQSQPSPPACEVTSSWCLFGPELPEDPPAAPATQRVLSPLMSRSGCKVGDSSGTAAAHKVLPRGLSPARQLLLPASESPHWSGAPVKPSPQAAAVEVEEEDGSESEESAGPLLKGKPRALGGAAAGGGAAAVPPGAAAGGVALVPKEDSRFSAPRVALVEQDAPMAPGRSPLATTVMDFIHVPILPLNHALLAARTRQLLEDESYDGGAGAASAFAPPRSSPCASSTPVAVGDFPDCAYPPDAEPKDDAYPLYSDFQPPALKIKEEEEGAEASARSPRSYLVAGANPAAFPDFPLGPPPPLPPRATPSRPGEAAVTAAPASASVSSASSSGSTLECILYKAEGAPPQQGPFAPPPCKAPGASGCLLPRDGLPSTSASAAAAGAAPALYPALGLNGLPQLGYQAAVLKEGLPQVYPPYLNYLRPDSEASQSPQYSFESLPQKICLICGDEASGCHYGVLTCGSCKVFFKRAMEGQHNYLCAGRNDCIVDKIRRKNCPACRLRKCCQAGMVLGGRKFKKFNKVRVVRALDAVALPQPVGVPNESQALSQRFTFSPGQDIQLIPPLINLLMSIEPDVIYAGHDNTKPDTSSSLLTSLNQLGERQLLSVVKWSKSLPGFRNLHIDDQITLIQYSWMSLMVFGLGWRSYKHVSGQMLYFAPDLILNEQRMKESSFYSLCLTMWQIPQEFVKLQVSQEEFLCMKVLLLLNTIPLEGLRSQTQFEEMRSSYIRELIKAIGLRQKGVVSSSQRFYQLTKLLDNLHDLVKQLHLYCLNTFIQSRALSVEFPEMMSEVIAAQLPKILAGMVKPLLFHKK

[7] = target: T3, Androgen receptor (Homo sapiens, UniProt P10275); test: Binding affinity at AR
T3 sequence (P10275 whole entry): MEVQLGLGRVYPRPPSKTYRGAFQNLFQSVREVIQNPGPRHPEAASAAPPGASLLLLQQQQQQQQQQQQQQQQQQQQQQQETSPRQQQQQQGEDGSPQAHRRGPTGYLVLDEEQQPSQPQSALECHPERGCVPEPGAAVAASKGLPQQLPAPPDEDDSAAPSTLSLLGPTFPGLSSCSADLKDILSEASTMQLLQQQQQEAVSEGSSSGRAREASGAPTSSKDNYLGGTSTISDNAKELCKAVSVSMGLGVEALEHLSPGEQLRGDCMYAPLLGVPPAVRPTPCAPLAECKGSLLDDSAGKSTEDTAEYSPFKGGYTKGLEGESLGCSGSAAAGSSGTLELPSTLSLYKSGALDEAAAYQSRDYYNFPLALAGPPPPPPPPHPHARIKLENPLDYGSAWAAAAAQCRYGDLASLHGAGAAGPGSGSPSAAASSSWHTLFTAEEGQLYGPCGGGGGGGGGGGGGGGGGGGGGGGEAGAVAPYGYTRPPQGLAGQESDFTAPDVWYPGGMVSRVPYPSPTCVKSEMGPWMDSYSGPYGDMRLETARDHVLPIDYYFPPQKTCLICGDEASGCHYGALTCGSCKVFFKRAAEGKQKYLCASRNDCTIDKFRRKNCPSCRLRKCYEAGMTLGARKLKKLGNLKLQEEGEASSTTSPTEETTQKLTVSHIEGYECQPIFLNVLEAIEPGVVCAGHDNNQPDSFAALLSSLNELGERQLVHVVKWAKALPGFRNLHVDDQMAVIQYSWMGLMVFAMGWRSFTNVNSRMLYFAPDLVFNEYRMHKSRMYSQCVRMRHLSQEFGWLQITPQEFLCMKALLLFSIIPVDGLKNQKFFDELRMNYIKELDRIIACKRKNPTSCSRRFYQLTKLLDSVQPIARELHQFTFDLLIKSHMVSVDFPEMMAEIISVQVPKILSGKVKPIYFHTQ

[8] = target: T4, Mineralocorticoid receptor (Homo sapiens, UniProt P08235); test: Binding affinity at MR
T4 sequence (P08235 whole entry): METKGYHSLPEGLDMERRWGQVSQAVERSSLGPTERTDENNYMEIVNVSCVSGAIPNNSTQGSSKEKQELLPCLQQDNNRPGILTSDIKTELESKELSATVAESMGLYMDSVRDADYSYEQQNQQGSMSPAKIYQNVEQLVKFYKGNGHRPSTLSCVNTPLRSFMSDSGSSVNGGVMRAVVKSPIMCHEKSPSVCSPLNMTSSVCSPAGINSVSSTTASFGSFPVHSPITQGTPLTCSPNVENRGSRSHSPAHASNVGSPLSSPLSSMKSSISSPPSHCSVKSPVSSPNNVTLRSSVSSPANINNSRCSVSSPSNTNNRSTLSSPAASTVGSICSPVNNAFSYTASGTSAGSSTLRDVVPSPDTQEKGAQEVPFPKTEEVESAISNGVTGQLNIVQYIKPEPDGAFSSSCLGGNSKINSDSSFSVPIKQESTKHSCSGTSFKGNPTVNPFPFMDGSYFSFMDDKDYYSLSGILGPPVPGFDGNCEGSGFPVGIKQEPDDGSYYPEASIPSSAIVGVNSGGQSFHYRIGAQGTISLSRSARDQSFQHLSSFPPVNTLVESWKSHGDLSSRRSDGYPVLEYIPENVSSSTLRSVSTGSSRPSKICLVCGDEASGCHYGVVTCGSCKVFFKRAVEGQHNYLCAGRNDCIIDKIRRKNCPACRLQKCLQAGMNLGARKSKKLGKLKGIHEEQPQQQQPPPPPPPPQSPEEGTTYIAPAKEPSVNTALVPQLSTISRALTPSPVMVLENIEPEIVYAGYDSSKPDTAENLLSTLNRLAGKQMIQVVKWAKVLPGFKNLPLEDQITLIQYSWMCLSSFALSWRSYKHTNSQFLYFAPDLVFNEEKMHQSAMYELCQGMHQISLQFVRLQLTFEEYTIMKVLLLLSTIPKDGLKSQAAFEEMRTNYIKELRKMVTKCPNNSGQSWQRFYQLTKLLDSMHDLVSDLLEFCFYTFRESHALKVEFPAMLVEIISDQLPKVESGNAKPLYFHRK

EC50 [2] [nM] | IC50 [3] [nM] | IC50 [4] [nM] | Ki [5] [nM] | Ki [6] [nM] | Ki [7] [nM] | Ki [8] [nM] | Structure (SMILES) | Activity [1]
 |  |  |  |  |  |  | COc1c(O)ccc2c1-c1ccc3c(c1/C(=C/c1cc(F)cc4c1OCOC4)O2)C(C)=CC(C)(C)N3 | Active
1.5 | 4.7 | 1.1 | 1.4 | 750 | 910 | 290 | COc1c(O)ccc2c1-c1ccc3c(c1/C(=C/c1cccc(O)c1)O2)C(C)=CC(C)(C)N3 | 
 |  |  |  | 970 | 700 | 1100 | COc1c(O)ccc2c1-c1ccc3c(c1/C(=C/c1ccc(F)cc1CO)O2)C(C)=CC(C)(C)N3 | 
 |  |  |  | 840 | 630 | 430 | COCOCc1cc(F)ccc1/C=C1\Oc2ccc(O)c(OC)c2-c2ccc3c(c21)C(C)=CC(C)(C)N3 | 
